This note sets out measurements from patent publication US20250051361A1, “5,6,7,8-TETRAHYDRO-2,6-NAPHTHYRIDINE DERIVATIVES AS CANCER THERAPEUTICS” (VRise Therapeutics, Inc., priority 2021, published 2025).

SMILES strings stand for the structures. Where a name gives a salt, the structure may show the parent alone.

One assay concerns HPAC cells. Put plainly: In vitro cell proliferation assay in HPAC cell line. The conditions noted are these: for inhibition at 3 µM / inhibition at 10 µM: Homo sapiens; for inhibition at 3 µM / % Inhibition of Cell Proliferation HPAC TC1: TC1: Test Concentration of 3 uM; for inhibition at 10 µM: TC2: Test Concentration of 10 uM; for % Inhibition of Cell Proliferation HPAC TC1: 3 µM. The assay is classed as cell-based. On the procedure:
(§1) Test 1: In Vitro Cell Proliferation Assay in HPAC and AGS Cell Lines
(§2) Growth inhibition assays was carried out using 10% FBS supplemented media. Cells are to be seeded at a concentration of 2000-3,000 cells/well in a 96-well plate. Test compounds at a concentration range from 0.1 to 30 uM will be added after 24 hours. Growth will be assessed using the MTT or CCK-8 kit for measuring reduction at 0 h (prior to the addition of the test compound) and 72 to 96 hours after the addition of test compound. Absorbance read on a BIO-RAD iMark Microplate or any equivalent micloplate reader at a wavelength of 450 nm to 600 nm. Data will be analyzed and percent inhibition due to the test compound compared to the control is calculated accordingly.

The test system of a further assay is AGS cells. The assay is described as follows: In vitro cell proliferation assay in AGS cell line. The assay is classed as cell-based. The conditions noted are these: Homo sapiens; for inhibition at 3 µM: TC1: Test Concentration of 3 uM; for inhibition at 10 µM: TC2: Test Concentration of 10 uM. On the procedure: as §1, §2
The next assay has as its target T1, human KRAS G12D protein (Homo sapiens, UniProt P01116, G12D).
T1 construct: A human KRAS G12D protein (corresponding to amino acid 2-169)
Put plainly: HTRF-based nucleotide exchange assay detecting GTP binding to K-Ras. The format is biochemical. The conditions noted are these: human KRAS G12D (amino acid 2-169), SOS1 mediated exchange. How it is done: Test 3: Nucleotide Exchange Assay HTRF-based nucleotide exchange assay detecting GTP binding to K-Ras A human KRAS G12D protein (corresponding to amino acid 2-169) was mixed with a a-GST Tb antibody (1.5× solution) and 10 uL of the solution was added to the reaction wells). Compounds (each 10 concentrations or any other concentration of choice at 3-fold or fold of choice for serial dilutions with a starting concentration of […] or or 100 μM or 50 uM) were then delivered to the reaction wells using acoustic dispenser (Echo, Labcyte) and incubated with the Kras/aGST-Tb antibody for 1-hour at room temperature. […] HTRF based SOS1 mediated exchange of GDP to GTP was measured on a microplate reader […] (BMG Labtech) at an excitation wavelength of 337 nm and emission wavelengths of 665 and 620 nm. No-SOS1 reaction or highest control compound concentration was used as blank and % inhibition was calculated and/or IC50 was determined using Sigmoidal dose response (variable slope) equation.
In general terms: TR-FRET usually uses a lanthanide donor and a delayed reading to cut background.

T1 sequence (P01116 2-169 isoform P01116-2 G12D): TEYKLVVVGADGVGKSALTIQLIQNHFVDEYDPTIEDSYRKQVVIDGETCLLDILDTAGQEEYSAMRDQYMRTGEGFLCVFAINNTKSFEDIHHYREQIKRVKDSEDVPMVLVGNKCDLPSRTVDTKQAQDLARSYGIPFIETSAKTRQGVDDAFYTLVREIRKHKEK

As a reminder, the inhibition is how much of the control response was suppressed. A high value points to a response far below the control. As to `CN1CCC[C@H]1COc1nc(N2[C@@H]3CC[C@H]2CNC3)c2c(c1C#N)CN(c1cccc3cccc(Br)c13)CC2` [Ex 10, 1-((1R,5S)-3,8-diazabicyclo[3.2.1]octan-8-yl)-6-(8-bromonaphthalen-1-yl)-3-(((S)-1-methylpyrrolidin-2-yl)methoxy)-5,6,7,8-tetrahydro-2,6-naphthyridine-4-carbonitrile Hydrochloride], in the assay on HPAC cells, the inhibition at 3 µM lay in the range of 75 to 100% and the inhibition at 10 µM was in the range of 75 to 100%.
Turning to `CN1CCC[C@H]1COc1nc(N2CC3CCC(C2)N3)c2c(c1C#N)CN(c1cc(O)cc3ccccc13)CC2` [Ex 1, 1-(3,8-diazabicyclo[3.2.1]octan-3-yl)-6-(3-hydroxynaphthalen-1-yl)-3-(((S)-1-methylpyrrolidin-2-yl)methoxy)-5,6,7,8-tetrahydro-2,6-naphthyridine-4-carbonitrile, hydrochloride], in the assay with AGS cells, the inhibition at 3 µM lay within 25 to 50% and the inhibition at 10 µM was in the range of 75 to 100%.
In the assay with HPAC cells, `N#Cc1c(OCC23CCCN2CCC3)nc(N2[C@@H]3CC[C@H]2CNC3)c2c1CN(c1cccc3cccc(Br)c13)CC2` [Ex 7, 1-((1R,5S)-3,8-diazabicyclo[3.2.1]octan-8-yl)-6-(8-bromonaphthalen-1-yl)-3-((tetrahydro-1H-pyrrolizin-7a(5H)-yl)methoxy)-5,6,7,8-tetrahydro-2,6-naphthyridine-4-carbonitrile TFA salt] gave an inhibition at 3 µM of 75 to 100% and an inhibition at 10 µM of 75 to 100%.
In the assay on HPAC cells, `C#Cc1cccc2cc(O)cc(N3CCc4c(N5[C@@H]6CC[C@H]5CNC6)nc(OCC56CCCN5CCC6)c(C#N)c4C3)c12` [Ex 14, 1-((1R,5S)-3,8-diazabicyclo[3.2.1]octan-8-yl)-6-(8-ethynyl-3-hydroxynaphthalen-1-yl)-3-((tetrahydro-1H-pyrrolizin-7a(5H)-yl)methoxy)-5,6,7,8-tetrahydro-2,6-naphthyridine-4-carbonitrile Hydrochloride] displayed an inhibition at 3 µM of at most 25% and an inhibition at 10 µM of 50 to 75%.
The like results for `C[C@@H](OCc1ccccc1)[C@H](N)C(=O)N1CCN(c2nc(OC[C@@H]3CCCN3C)c(C#N)c3c2CCN(Cc2ccccc2)C3)CC1` [Ex 23, 6-benzyl-1-(4-(O-benzyl-L-threonyl)piperazin-1-yl)-3-(((S)-1-methylpyrrolidin-2-yl)methoxy)-5,6,7,8-tetrahydro-2,6-naphthyridine-4-carbonitrile Hydrochloride] were, in that order, at most 25% and 50 to 75%.
In the assay on HPAC cells, `C#Cc1cccc2cccc(N3CCc4c(N5[C@@H]6CC[C@H]5CNC6)nc(OCC56CCCN5CCC6)c(C#N)c4C3)c12` [Ex 8, 1-((1R,5S)-3,8-diazabicyclo[3.2.1]octan-8-yl)-6-(8-ethynylnaphthalen-1-yl)-3-((tetrahydro-1H-pyrrolizin-7a(5H)-yl)methoxy)-5,6,7,8-tetrahydro-2,6-naphthyridine-4-carbonitrile TFA Salt] had an inhibition at 10 µM of 50 to 75%. Further, the “% Inhibition of Cell Proliferation HPAC TC1” value in the assay with HPAC cells (TFA Salt) is on record as “A (A = ≤25%)”.
Take `CC(C)[C@@H](NC(=O)OC(C)(C)C)C(=O)N1CCN(c2nc(OC[C@@H]3CCCN3C)c(C#N)c3c2CCN(Cc2ccccc2)C3)CC1` [Ex 20, tert-butyl ((R)-1-(4-(6-benzyl-4-cyano-3-(((S)-1-methylpyrrolidin-2-yl)methoxy)-5,6,7,8-tetrahydro-2,6-naphthyridin-1-yl)piperazin-1-yl)-3-methyl-1-oxobutan-2-yl)carbamate]: in the assay on HPAC cells, the inhibition at 3 µM is at most 25% and the inhibition at 10 µM was 25 to 50%.
In the assay with AGS cells, `CN1CCC[C@H]1COc1nc(N2[C@@H]3CC[C@H]2CN(C(=O)OC(C)(C)C)C3)c2c(c1C#N)CN(c1cc(O)cc3ccccc13)CC2` [Ex 4, tert-butyl (1R,5S)-8-(4-cyano-6-(3-hydroxynaphthalen-1-yl)-3-(((S)-1-methylpyrrolidin-2-yl)methoxy)-5,6,7,8-tetrahydro-2,6-naphthyridin-1-yl)-3,8-diazabicyclo[3.2.1]octane-3-carboxylate] yielded an inhibition at 3 µM of 75 to 100% and an inhibition at 10 µM of 75 to 100%.
With `CN1CCC[C@H]1COc1nc(N2[C@@H]3CC[C@H]2CNC3)c2c(c1C#N)CN(c1cc(O)cc3ccccc13)CC2` [Ex 5, 1-((1R,5S)-3,8-diazabicyclo[3.2.1]octan-8-yl)-6-(3-hydroxynaphthalen-1-yl)-3-(((S)-1-methylpyrrolidin-2-yl)methoxy)-5,6,7,8-tetrahydro-2,6-naphthyridine-4-carbonitrile Hydrochloride], in the assay with AGS cells, the inhibition at 3 µM lay in the range of 25 to 50% and the inhibition at 10 µM fell in the range of 75 to 100%.
In the case of `CN1CCC[C@H]1COc1nc(N2CC3CCC(C2)N3)c2c(c1C#N)CN(Cc1ccccc1)CC2` [Ex 18, 6-benzyl-1-(3,8-diazabicyclo[3.2.1]octan-3-yl)-3-(((S)-1-methylpyrrolidin-2-yl)methoxy)-5,6,7,8-tetrahydro-2,6-naphthyridine-4-carbonitrile Hydrochloride], in the assay with HPAC cells, the inhibition at 3 µM was at most 25% and the inhibition at 10 µM was 25 to 50%. Further, in the assay with AGS cells, the inhibition at 3 µM lay within 25 to 50% and the inhibition at 10 µM fell in the range of 75 to 100%.
In the assay on HPAC cells, `CN1CCC[C@H]1COc1nc(N2[C@@H]3CC[C@H]2CNC3)c2c(c1C#N)CN(c1cc(O)cc3cccc(Br)c13)CC2` [Ex 15, 1-((1R,5S)-3,8-diazabicyclo[3.2.1]octan-8-yl)-6-(8-bromo-3-hydroxynaphthalen-1-yl)-3-(((S)-1-methylpyrrolidin-2-yl)methoxy)-5,6,7,8-tetrahydro-2,6-naphthyridine-4-carbonitrile Hydrochloride] had an inhibition at 3 µM of at most 25% and an inhibition at 10 µM of 75 to 100%.
For `C#Cc1cccc2cccc(N3CCc4c(N5[C@@H]6CC[C@H]5CNC6)nc(OCC56CCCN5CCC6)c(C#N)c4C3)c12` [Ex 12, 1-((1R,5S)-3,8-diazabicyclo[3.2.1]octan-8-yl)-6-(8-ethynylnaphthalen-1-yl)-3-((tetrahydro-1H-pyrrolizin-7a(5H)-yl)methoxy)-5,6,7,8-tetrahydro-2,6-naphthyridine-4-carbonitrile Hydrochloride], in the assay with HPAC cells (Hydrochloride), the “% Inhibition of Cell Proliferation HPAC TC1” value is listed as “C (C = >50 to ≤75)”.
As for `N#Cc1c(OCC23CCCN2CCC3)nc(N2[C@@H]3CC[C@H]2CNC3)c2c1CN(c1cc(O)cc3cccc(Br)c13)CC2` [Ex 9, 1-((1R,5S)-3,8-diazabicyclo[3.2.1]octan-8-yl)-6-(8-bromo-3-hydroxynaphthalen-1-yl)-3-((tetrahydro-1H-pyrrolizin-7a(5H)-yl)methoxy)-5,6,7,8-tetrahydro-2,6-naphthyridine-4-carbonitrile Hydrochloride], in the assay on HPAC cells, the inhibition at 3 µM was at most 25% and the inhibition at 10 µM lay within 75 to 100%.
On to `CC(C)[C@@H](N)C(=O)N1CCN(c2nc(OC[C@@H]3CCCN3C)c(C#N)c3c2CCN(Cc2ccccc2)C3)CC1` [Ex 21, 1-(4-(D-valyl)piperazin-1-yl)-6-benzyl-3-(((S)-1-methylpyrrolidin-2-yl)methoxy)-5,6,7,8-tetrahydro-2,6-naphthyridine-4-carbonitrile Hydrochloride], for which, in the assay on HPAC cells, the inhibition at 3 µM was at most 25% and the inhibition at 10 µM is at most 25%.
`CN1CCC[C@H]1COc1nc(N2CCNC(CC#N)C2)c2c(c1C#N)CN(c1cccc3cccc(Cl)c13)CC2` (stereo partly drawn) [Ex 3, 6-(8-chloronaphthalen-1-yl)-1-(3-(cyanomethyl)piperazin-1-yl)-3-(((S)-1-methylpyrrolidin-2-yl)methoxy)-5,6,7,8-tetrahydro-2,6-naphthyridine-4-carbonitrile hydrochloride]: in the assay with AGS cells, the inhibition at 3 µM is 25 to 50% and the inhibition at 10 µM was 75 to 100%.
Consider `C[C@H]1CNCCN1c1nc(OCC2CCCN2C)c(C#N)c2c1CCN(Cc1ccccc1)C2` (stereo partly drawn) [Ex 75, 6-benzyl-1-((S)-2-methylpiperazin-1-yl)-3-((1-methylpyrrolidin-2-yl)methoxy)-5,6,7,8-tetrahydro-2,6-naphthyridine-4-carbonitrile hydrochloride], for which the inhibition at 3 µM in the assay on HPAC cells and in the assay on AGS cells was at most 25% in each case. The inhibition at 10 µM with HPAC cells and in the assay with AGS cells was at most 25% throughout.
The term IC50 denotes the concentration at which inhibition is half-maximal. Low values mean higher potency, high ones lower potency. In the case of `N#Cc1c(OCC2(CN3CCOCC3)CC2)nc(N2C[C@H]3CC[C@@H](C2)N3)c2c1CN(Cc1ccccc1)CC2` [Ex 24, 6-benzyl-1-((1R,5S)-3,8-diazabicyclo[3.2.1]octan-3-yl)-3-((1-(morpholinomethyl)cyclopropyl)methoxy)-5,6,7,8-tetrahydro-2,6-naphthyridine-4-carbonitrile Hydrochloride], the IC50 on human KRAS G12D protein was above 1000 nM. In the assay on HPAC cells, this compound came in with an inhibition at 3 µM of at most 25% and an inhibition at 10 µM of 25 to 50%.
